In paper PMC7508628, “Targeting the Respiratory Syncytial Virus N^0-P Complex with Constrained α-Helical Peptides in Cells and Mice” (Antimicrobial Agents and Chemotherapy, 2020):
Where a SMILES comes first, the peptide text is derived from it. Bridges are numbered along the chain shown (N, C = ends). [ ]: non-standard residue; d: D form. R8 = C=CCCCCCC[C@@](C)(N)C(=O)O; R5 = C=CCCC[C@@](C)(N)C(=O)O; S5 = C=CCCC[C@](C)(N)C(=O)O

Assay: circular dichroism
Conditions: 10 mM phosphate; pH 7.5; 25 °C; 50 uM
In the case of CC[C@H](C)[C@H](NC(=O)[C@H](CO)NC(=O)[C@H](CCC(=O)O)NC(=O)[C@H](CC(C)C)NC(=O)[C@H](Cc1ccccc1)NC(=O)[C@H](CCCCN)NC(=O)[C@@H](NC(=O)[C@H](C)NC(=O)[C@H](CCCCN)NC(=O)[C@H](CC(N)=O)NC(=O)[C@H](CC(N)=O)NC(=O)[C@H](C)NC(=O)[C@H](CC(=O)O)NC(=O)[C@H](CCC(=O)O)NC(C)=O)[C@@H](C)O)C(=O)N[C@@H](CCCCN)C(=O)N[C@@]1(C)CCCC=CCCC[C@@](C)(C(N)=O)NC(=O)[C@H](C)NC(=O)[C@H](Cc2ccccc2)NC(=O)[C@H](CCCCN)NC1=O (Ac-EDANNKATKFLESIK[S5]KFA[S5]-NH2; staple 16-20), the helicity was 24.1%. Work on CC[C@H](C)[C@@H]1NC(=O)[C@](C)(NC(=O)[C@H](CCC(=O)O)NC(=O)[C@H](CC(C)C)NC(=O)[C@H](Cc2ccccc2)NC(=O)[C@H](CCCCN)NC(=O)[C@@H](NC(=O)[C@H](C)NC(=O)[C@H](CCCCN)NC(=O)[C@H](CC(N)=O)NC(=O)[C@H](CC(N)=O)NC(=O)[C@H](C)NC(=O)[C@H](CC(=O)O)NC(=O)[C@H](CCC(=O)O)NC(C)=O)[C@@H](C)O)CCCC=CCCC[C@@](C)(C(=O)N[C@@H](CCCCN)C(=O)N[C@@H](Cc2ccccc2)C(=O)N[C@@H](C)C(=O)N[C@@H](CO)C(N)=O)NC(=O)[C@H](CCCCN)NC1=O (Ac-EDANNKATKFLE[R5]IK[S5]KFAS-NH2; staple 13-16) yielded a helicity of 30.7%. CC[C@H](C)[C@@H]1NC(=O)[C@@](C)(NC(=O)[C@H](CCC(=O)O)NC(=O)[C@H](CC(C)C)NC(=O)[C@H](Cc2ccccc2)NC(=O)[C@H](CCCCN)NC(=O)[C@@H](NC(=O)[C@H](C)NC(=O)[C@H](CCCCN)NC(=O)[C@H](CC(N)=O)NC(=O)[C@H](CC(N)=O)NC(=O)[C@H](C)NC(=O)[C@H](CC(=O)O)NC(=O)[C@H](CCC(=O)O)NC(C)=O)[C@@H](C)O)CCCC=CCCC[C@@](C)(C(=O)N[C@@H](Cc2ccccc2)C(=O)N[C@@H](C)C(=O)N[C@@H](CO)C(N)=O)NC(=O)CNC(=O)[C@H](CCCCN)NC1=O (Ac-EDANNKATKFLE[S5]IKG[S5]FAS-NH2; staple 13-17) showed a helicity of 46.5%. Work on CC[C@H](C)[C@@H]1NC(=O)[C@H](CO)NC(=O)[C@](C)(NC(=O)[C@H](CC(C)C)NC(=O)[C@H](Cc2ccccc2)NC(=O)[C@H](CCCCN)NC(=O)[C@@H](NC(=O)[C@H](C)NC(=O)[C@H](CCCCN)NC(=O)[C@H](CC(N)=O)NC(=O)[C@H](CC(N)=O)NC(=O)[C@H](C)NC(=O)[C@H](CC(=O)O)NC(=O)[C@H](CCC(=O)O)NC(C)=O)[C@@H](C)O)CCCCCCC=CCCC[C@@](C)(C(=O)N[C@@H](CO)C(N)=O)NC(=O)[C@H](Cc2ccccc2)NC(=O)[C@H](CCCCN)NC(=O)CNC(=O)[C@H](CCCCN)NC1=O (Ac-EDANNKATKFL[R8]SIKGKF[S5]S-NH2; staple 12-19) yielded a helicity of 35.3%. In the case of CC[C@H](C)[C@H](NC(=O)[C@H](CO)NC(=O)[C@]1(C)CCCC=CCCC[C@@](C)(NC(=O)[C@@H](NC(=O)[C@H](C)NC(=O)[C@H](CCCCN)NC(=O)[C@H](CC(N)=O)NC(=O)[C@H](CC(N)=O)NC(=O)[C@H](C)NC(=O)[C@H](CC(=O)O)NC(=O)[C@H](CCC(=O)O)NC(C)=O)[C@@H](C)O)C(=O)N[C@@H](Cc2ccccc2)C(=O)N[C@@H](CC(C)C)C(=O)N1)C(=O)N[C@@H](CCCCN)C(=O)NCC(=O)N[C@@H](CCCCN)C(=O)N[C@@H](Cc1ccccc1)C(=O)N[C@@H](C)C(=O)N[C@@H](CO)C(N)=O (Ac-EDANNKAT[R5]FL[S5]SIKGKFAS-NH2; staple 9-12), the helicity was 58.9%.

Assay: Circular dichroism spectroscopy, α-helical content
Assay type: physicochemical
Conditions: CD, 10 mM phosphate buffer pH 7.5, 50 μM peptide, 25°C, calculated from ellipticity at 222 nm; average of three measurements
Experimental: The α-helical stabilization appeared to be higher for the i, i + 7 staples overall.
The circular dichroism spectra were acquired on a Chirascan spectropolarimeter. The samples were prepared in 10 mM phosphate buffer, pH 7.5, at a peptide concentration of 50 μM. Data were recorded at 25°C by step scan from 180 nm to 260 nm in a 0.5-mm-pathlength quartz cell using 0.2-nm-wavelength increments, a 1-nm bandwidth, and a response time of 1 s. Each spectrum was an average of three measurements and was subtracted from the buffer baseline. The data were converted to per residue molar ellipticity units (θ; in degrees · square centimeters · decimoles^−1 · number of residues^−1) and smoothed using Igor Pro software. Percent helicity was calculated as follows: (100 × CD222)/(C × N × {40,000 × [1 − (2.5/N)]}), where CD222 is the molar ellipticity (θ) at 222 nm (in millidegrees), N is the number of amino acids in the peptide, and C is the peptide molar concentration (in moles per liter).
For CC[C@H](C)[C@H](NC(=O)[C@H](CO)NC(=O)[C@H](CCC(=O)O)NC(=O)[C@H](CC(C)C)NC(=O)[C@H](Cc1ccccc1)NC(=O)[C@]1(C)CCCC=CCCC[C@@](C)(NC(=O)[C@H](CC(N)=O)NC(=O)[C@H](CC(N)=O)NC(=O)[C@H](C)NC(=O)[C@H](CC(=O)O)NC(=O)[C@H](CCC(=O)O)NC(C)=O)C(=O)N[C@@H](C)C(=O)N[C@@H]([C@@H](C)O)C(=O)N1)C(=O)N[C@@H](CCCCN)C(=O)NCC(=O)N[C@@H](CCCCN)C(=O)N[C@@H](Cc1ccccc1)C(=O)N[C@@H](C)C(=O)N[C@@H](CO)C(N)=O [1b] (Ac-EDANN[R5]AT[S5]FLESIKGKFAS-NH2; staple 6-9), the “% helicity” value was 11.5%. In the case of CC[C@H](C)[C@@H]1NC(=O)[C@H](CO)NC(=O)[C@@](C)(NC(=O)[C@H](CC(C)C)NC(=O)[C@H](Cc2ccccc2)NC(=O)[C@H](CCCCN)NC(=O)[C@@H](NC(=O)[C@H](C)NC(=O)[C@H](CCCCN)NC(=O)[C@H](CC(N)=O)NC(=O)[C@H](CC(N)=O)NC(=O)[C@H](C)NC(=O)[C@H](CC(=O)O)NC(=O)[C@H](CCC(=O)O)NC(=O)CNC(=O)[C@H](Cc2c[nH]cn2)NC(=O)[C@H](Cc2ccccc2)NC(=O)[C@H](CCC(=O)O)NC(C)=O)[C@@H](C)O)CCCC=CCCCC2(CCCC=CCCC[C@@](C)(C(=O)N[C@@H](CO)C(N)=O)NC(=O)[C@H](Cc3ccccc3)NC(=O)[C@H](CCCCN)NC2=O)NC(=O)[C@H](CCCCN)NC1=O (stereo partly shown) [2e1f], the “% helicity” value was 27.0%. With CC[C@H](C)[C@H](NC(=O)[C@H](CO)NC(=O)[C@H](CCC(=O)O)NC(=O)[C@H](CC(C)C)NC(=O)[C@H](Cc1ccccc1)NC(=O)[C@H](CCCCN)NC(=O)[C@@H](NC(=O)[C@H](C)NC(=O)[C@H](CCCCN)NC(=O)[C@]1(C)CCCC=CCCC[C@@](C)(NC(=O)[C@H](CCC(=O)O)NC(=O)CNC(=O)[C@H](Cc2c[nH]cn2)NC(=O)[C@H](Cc2ccccc2)NC(=O)[C@H](CCC(=O)O)NC(C)=O)C(=O)N[C@@H](C)C(=O)N[C@@H](CC(N)=O)C(=O)N1)[C@@H](C)O)C(=O)N[C@@H](CCCCN)C(=O)NCC(=O)N[C@@H](CCCCN)C(=O)N[C@@H](Cc1ccccc1)C(=O)N[C@@H](C)C(=O)N[C@@H](CO)C(N)=O [4b] (Ac-EFHGE[R5]AN[S5]KATKFLESIKGKFAS-NH2; staple 6-9) the “% helicity” value was 21.7%. With CC[C@H](C)[C@H](NC(=O)[C@H](CO)NC(=O)[C@H](CCC(=O)O)NC(=O)[C@H](CC(C)C)NC(=O)[C@H](Cc1ccccc1)NC(=O)[C@H](CCCCN)NC(=O)[C@@H](NC(=O)[C@H](C)NC(=O)[C@]1(C)CCCC=CCCC[C@](C)(NC(=O)[C@H](CCC(=O)O)NC(=O)CNC(=O)[C@H](Cc2c[nH]cn2)NC(=O)[C@H](Cc2ccccc2)NC(=O)[C@H](CCC(=O)O)NC(C)=O)C(=O)N[C@@H](C)C(=O)N[C@@H](CC(N)=O)C(=O)N[C@@H](CC(N)=O)C(=O)N1)[C@@H](C)O)C(=O)N[C@@H](CCCCN)C(=O)NCC(=O)N[C@@H](CCCCN)C(=O)N[C@@H](Cc1ccccc1)C(=O)N[C@@H](C)C(=O)N[C@@H](CO)C(N)=O [4d] (Ac-EFHGE[S5]ANN[S5]ATKFLESIKGKFAS-NH2; staple 6-10) the “% helicity” value was 28.0%. For CC[C@H](C)[C@H](NC(=O)[C@]1(C)CCCCCCC=CCCCC2(CCCC=CCCCCCC[C@@](C)(NC(=O)[C@H](Cc3ccccc3)NC(=O)[C@H](CCC(=O)O)NC(C)=O)C(=O)NCC(=O)N[C@@H](CCC(=O)O)C(=O)N[C@@H](CC(=O)O)C(=O)N[C@@H](C)C(=O)N[C@@H](CC(N)=O)C(=O)N[C@@H](CC(N)=O)C(=O)N2)C(=O)N[C@@H](C)C(=O)N[C@@H]([C@@H](C)O)C(=O)N[C@@H](CCCCN)C(=O)N[C@@H](Cc2ccccc2)C(=O)N[C@@H](CC(C)C)C(=O)N[C@@H](CCC(=O)O)C(=O)N1)C(=O)N[C@@H](CCCCN)C(=O)NCC(=O)N[C@@H](CCCCN)C(=O)N[C@@H](Cc1ccccc1)C(=O)N[C@@H](C)C(=O)N[C@@H](CO)C(N)=O (stereo partly shown) [4e3b], the “% helicity” value was 51.1%. In the case of CC[C@H](C)[C@H](NC(=O)[C@H](CO)NC(=O)[C@H](CCC(=O)O)NC(=O)[C@H](CC(C)C)NC(=O)[C@H](Cc1ccccc1)NC(=O)[C@H](CCCCN)NC(=O)[C@@H](NC(=O)[C@H](C)NC(=O)[C@]1(C)CCCC=CCCCCCC[C@@](C)(NC(=O)[C@H](Cc2ccccc2)NC(=O)[C@H](CCC(=O)O)NC(C)=O)C(=O)NCC(=O)N[C@@H](CCC(=O)O)C(=O)N[C@@H](CC(=O)O)C(=O)N[C@@H](C)C(=O)N[C@@H](CC(N)=O)C(=O)N[C@@H](CC(N)=O)C(=O)N1)[C@@H](C)O)C(=O)N[C@@H](CCCCN)C(=O)NCC(=O)N[C@@H](CCCCN)C(=O)N[C@@H](Cc1ccccc1)C(=O)N[C@@H](C)C(=O)N[C@@H](CO)C(N)=O [4e] (Ac-EF[R8]GEDANN[S5]ATKFLESIKGKFAS-NH2; staple 3-10), the “% helicity” value was 28.8%. For CC[C@H](C)[C@H](NC(=O)[C@H](CO)NC(=O)[C@H](CCC(=O)O)NC(=O)[C@H](CC(C)C)NC(=O)[C@H](Cc1ccccc1)NC(=O)[C@]1(C)CCCC=CCCCCCC[C@@](C)(NC(=O)[C@H](CCC(=O)O)NC(=O)CNC(=O)[C@H](Cc2c[nH]cn2)NC(=O)[C@H](Cc2ccccc2)NC(=O)[C@H](CCC(=O)O)NC(C)=O)C(=O)N[C@@H](C)C(=O)N[C@@H](CC(N)=O)C(=O)N[C@@H](CC(N)=O)C(=O)N[C@@H](CCCCN)C(=O)N[C@@H](C)C(=O)N[C@@H]([C@@H](C)O)C(=O)N1)C(=O)N[C@@H](CCCCN)C(=O)NCC(=O)N[C@@H](CCCCN)C(=O)N[C@@H](Cc1ccccc1)C(=O)N[C@@H](C)C(=O)N[C@@H](CO)C(N)=O [4f] (Ac-EFHGE[R8]ANNKAT[S5]FLESIKGKFAS-NH2; staple 6-13), the “% helicity” value was 17.2%. For CC[C@H](C)[C@H](NC(=O)[C@]1(C)CCCC=CCCCCCC[C@@](C)(NC(=O)[C@H](CC(N)=O)NC(=O)[C@H](CC(N)=O)NC(=O)[C@H](C)NC(=O)[C@H](CC(=O)O)NC(=O)[C@H](CCC(=O)O)NC(=O)CNC(=O)[C@H](Cc2c[nH]cn2)NC(=O)[C@H](Cc2ccccc2)NC(=O)[C@H](CCC(=O)O)NC(C)=O)C(=O)N[C@@H](C)C(=O)N[C@@H]([C@@H](C)O)C(=O)N[C@@H](CCCCN)C(=O)N[C@@H](Cc2ccccc2)C(=O)N[C@@H](CC(C)C)C(=O)N[C@@H](CCC(=O)O)C(=O)N1)C(=O)N[C@@H](CCCCN)C(=O)NCC(=O)N[C@@H](CCCCN)C(=O)N[C@@H](Cc1ccccc1)C(=O)N[C@@H](C)C(=O)N[C@@H](CO)C(N)=O [4g], the “% helicity” value was 47.6%.
